Reference: patent publication US20020103120A1, “Regulation of human phosphodiesterase-like enzyme” (priority 2000, published 2002)
Several values for one entry are separate records, joined by “and”; a condition that tells them apart may be missing. Equal values may be shown once.

Tests used:
PDE11A4 [1] = target: T1, PDE11A4 (Homo sapiens, UniProt Q9HCR9); assay: PDE11A4 scintillation proximity assay (SPA), inhibition of [3H]-cGMP hydrolysis; format: biochemical; conditions: 0.4 μM [3H]-cGMP, 1 ng PDE11A4, RT 1 h, His-tagged recombinant enzyme
T1 construct: His-tag (N); made in house; host or cells: Sf21 insect cells (baculovirus)
Procedure: Effect of IBMX and dipyridamole was tested. Assays were performed in 384-well white plates in 20 μl containing the indicated concentration of inhibitor, 0.4 μM [^3H]-cGMP (0.025 μCi/well) and 1 ng PDE11A4 in 50 mM Tris-HCl, pH 7.5, 8.3 mM MgCl2, 1.7 mM EGTA, 0.5 mg/ml BSA. Reaction mixtures were incubated at RT for 1 h, then quenched with 30 μl of 18 mM ZnSO4 containing 0.15 mg Yttrium SPA PDE beads. The assay plates were sealed, allowed to settle for 30 min at RT, and counted on a TopCount NTX microscintillation counter (Packard). Reactions were run in triplicate.

human PDE-like enzyme = assay: Expression of human PDE-like enzyme by Western blotting in oligonucleotide-treated HCT116 cells; format: cell-based; conditions: HCT116, oligonucleotide added for seven days
Procedure: The cell line used for testing is the human colon cancer cell line HCT116. Cells are cultured in RPMI-1640 with 10-15% fetal calf serum at a concentration of 10,000 cells per milliliter in a volume of 0.5 ml and kept at 37° C. in a 95% air/5%CO2 atmosphere.
Phosphorothioate […] are synthesized on an Applied Biosystems Model 380B DNA synthesizer using phosphoroamidite chemistry. A sequence of 24 bases complementary to the nucleotides at position 1 to 24 of SEQ ID NO: 1 is used as the test oligonucleotide. As a control, another (random) sequence is used: 5′-TCAACTGACTAGATGTACATGGAC-3′. Following assembly and deprotection, oligonucleotides are ethanol-precipitated twice, dried, and suspended in phosphate buffered saline at the desired concentration. Purity of the oligonucleotides is tested by capillary gel electrophoresis and ion exchange HPLC. The purified oligonucleotides are added to the culture medium at a concentration of […] once per day for seven days.
This effect is not observed with the control oligonucleotide. After 3 to 7 days, the number of cells in the cultures is counted using an automatic cell counter. The number of cells in cultures treated with the test oligonucleotide (expressed as 100%) is compared with the number of cells in cultures treated with the control oligonucleotide.

PDE11A4 [2] = target: T1, PDE11A4; assay: Lineweaver-Burk analysis of PDE11A4 SPA to determine Km for cGMP; format: biochemical; conditions: 1 ng PDE11A4, various cGMP concentrations, RT, 0-90 min
Procedure: FIG. 17. Lineweaver-Burk analysis to determine Km values for cGMP. Reaction mixtures (20 μl/well) containing 1 ng PDE11A4 and various concentrations of cGMP (1.25 mCi/μmol) were incubated at RT. At various time points between 0 and 90 min the reactions were stopped with 30 μl of 18 mM ZnSO4 containing 0.15 mg Yttrium SPA PDE beads. The assay plates were sealed, allowed to settle for 30 min at RT, and counted on a TopCount NTX microscintillation counter (Packard). Reactions were run in triplicate. A, Time courses of PDE11A4 reaction with various concentration of cGMP. B, Lineweaver-Burk analysis. The Km value for cGMP was determined as 0.4 μM.
Expression of recombinant PDE11A4 was examined by baculovirus expression system in Sf21 cells with or without His-tag at the N-terminus. Since both expression level and enzyme activity of the His-tagged PDE11A4 (His-PDE11A4) was much higher than those of non-tagged enzyme (FIG. 15), His-PDE11A4 was selected for further use. The maximum expression level and activity were obtained from the cells cultured 24 to 48 h after transfection. The His-PDE11A4 was successfully purified by Ni^2+-chelating column chromatography (FIG. 16). The assay was carried out in scintillation proximity assay (SPA) using cGMP as substrate. Km value for cGMP was determined to be 0.4 μM (FIG. 17). […]

T1 sequence (Q9HCR9 whole entry): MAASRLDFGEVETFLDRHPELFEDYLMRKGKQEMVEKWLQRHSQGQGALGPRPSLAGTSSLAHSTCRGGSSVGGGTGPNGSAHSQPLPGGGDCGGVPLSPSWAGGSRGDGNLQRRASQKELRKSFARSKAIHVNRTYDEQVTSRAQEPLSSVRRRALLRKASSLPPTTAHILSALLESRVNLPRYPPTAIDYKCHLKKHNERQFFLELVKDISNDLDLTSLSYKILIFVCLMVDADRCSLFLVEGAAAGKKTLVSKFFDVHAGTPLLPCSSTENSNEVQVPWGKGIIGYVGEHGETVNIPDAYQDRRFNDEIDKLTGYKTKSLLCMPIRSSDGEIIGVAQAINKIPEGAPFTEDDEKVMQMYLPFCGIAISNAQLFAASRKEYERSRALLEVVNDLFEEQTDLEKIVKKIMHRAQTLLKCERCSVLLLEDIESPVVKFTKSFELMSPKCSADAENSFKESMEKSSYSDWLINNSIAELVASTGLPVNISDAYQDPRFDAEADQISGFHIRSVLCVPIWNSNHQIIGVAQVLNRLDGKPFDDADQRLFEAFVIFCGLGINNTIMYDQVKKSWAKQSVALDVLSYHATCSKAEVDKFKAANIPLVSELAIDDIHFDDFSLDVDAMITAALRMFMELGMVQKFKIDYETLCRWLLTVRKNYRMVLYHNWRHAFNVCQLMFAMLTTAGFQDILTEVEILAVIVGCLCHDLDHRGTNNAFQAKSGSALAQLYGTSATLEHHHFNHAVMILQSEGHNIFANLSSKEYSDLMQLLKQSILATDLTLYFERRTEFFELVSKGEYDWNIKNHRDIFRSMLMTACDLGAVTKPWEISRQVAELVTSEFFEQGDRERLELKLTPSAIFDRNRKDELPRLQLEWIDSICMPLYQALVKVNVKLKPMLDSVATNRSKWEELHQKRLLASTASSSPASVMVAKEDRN

Compound: CC(C)Cn1c(=O)n(C)c(=O)c2[nH]cnc21 [IBMX]
- IC50 (PDE11A4 [1]): 41 µM and 41.3 µM

Compound: control oligonucleotide: control (random) sequence 5′-TCAACTGACTAGATGTACATGGAC-3′ (DNA TCAACTGACTAGATGTACATGGAC; chemistry not given here)
- expression of human PDE-like enzyme (Western blotting) (human PDE-like enzyme): not observed

Compound: Nc1nc2c(ncn2[C@@H]2O[C@@H]3COP(=O)(O)O[C@H]3[C@H]2O)c(=O)[nH]1 [cGMP]
- Km (PDE11A4 [2]): 0.4 µM
